Tests used:
[1] = test system: complement mediated hemolysis; assay: Inhibition of complement mediated hemolysis (method of Baker et al.); type: cell-based
plasmin = plasmin (Homo sapiens, UniProt P00747); assay: Enzyme inhibition, TAME hydrolysis, plasmin (method of Muramatsu et al.); type: biochemical; settings: read-out: ID50, plasmin
Experimental: (§1) The enzyme inhibitory activity was determined according to the method of Muramatsu et al. [M. Muramatsu, T. Onishi, S. Makino, Y. Hayashi and S. Fujii, J. Biochem., 58, 214 (1965)]. The data summarized in Table 1 are expressed in terms of molar concentration (ID50) of the test compound which inhibits 50% of the activity of each enzyme to hydrolyze TAME (tosylarginine methyl ester).

thrombin = thrombin (Bos taurus, UniProt P00735); assay: Enzyme inhibition, TAME hydrolysis, thrombin (method of Muramatsu et al.); type: biochemical
Experimental: as §1

trypsin = target: T1, trypsin (Bos taurus, UniProt P00760); assay: Enzyme inhibition, TAME hydrolysis, trypsin (method of Muramatsu et al.); type: biochemical; settings: hydrolysis of TAME; read-out: ID50, trypsin
T1 sequence (P00760 24-246): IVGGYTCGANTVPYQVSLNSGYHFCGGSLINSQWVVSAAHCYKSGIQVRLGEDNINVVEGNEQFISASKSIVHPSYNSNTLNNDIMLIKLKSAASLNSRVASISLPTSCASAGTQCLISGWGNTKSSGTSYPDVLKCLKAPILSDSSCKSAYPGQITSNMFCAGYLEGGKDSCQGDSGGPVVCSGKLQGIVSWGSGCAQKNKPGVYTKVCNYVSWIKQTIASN
Experimental: as §1

kallikrein = assay: Enzyme inhibition, TAME hydrolysis, kallikrein (method of Muramatsu et al.); type: biochemical; settings: read-out: ID50, kallikrein
Experimental: as §1

Chain of plasmin (P00747 581-810 limits assumed): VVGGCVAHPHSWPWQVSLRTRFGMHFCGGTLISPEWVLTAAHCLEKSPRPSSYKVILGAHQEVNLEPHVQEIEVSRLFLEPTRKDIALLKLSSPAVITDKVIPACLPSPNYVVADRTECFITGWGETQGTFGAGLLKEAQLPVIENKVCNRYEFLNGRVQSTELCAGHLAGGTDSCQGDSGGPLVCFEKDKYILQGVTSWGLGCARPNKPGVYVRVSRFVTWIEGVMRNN
Chain of plasmin (P00747 97-580 partner limits assumed): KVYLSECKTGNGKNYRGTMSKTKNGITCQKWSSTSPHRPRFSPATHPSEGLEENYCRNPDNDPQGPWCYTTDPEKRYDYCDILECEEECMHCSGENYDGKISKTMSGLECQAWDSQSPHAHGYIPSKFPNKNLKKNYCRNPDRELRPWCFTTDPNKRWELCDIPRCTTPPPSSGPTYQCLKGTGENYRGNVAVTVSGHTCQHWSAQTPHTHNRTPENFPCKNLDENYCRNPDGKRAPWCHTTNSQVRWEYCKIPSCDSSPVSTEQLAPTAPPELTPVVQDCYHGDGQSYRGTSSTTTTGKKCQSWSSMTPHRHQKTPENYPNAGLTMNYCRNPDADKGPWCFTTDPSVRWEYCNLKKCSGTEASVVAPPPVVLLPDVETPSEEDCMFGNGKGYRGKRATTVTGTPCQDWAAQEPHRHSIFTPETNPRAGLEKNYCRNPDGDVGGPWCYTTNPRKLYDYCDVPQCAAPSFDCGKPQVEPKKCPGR

| IC50 (plasmin) | IC50 (thrombin) | IC50 (trypsin) | IC50 (kallikrein) | inhibition at 10 µM (thrombin; 1×10^-5 M, hydrolysis of TAME, read-out: percentage inhibition, thrombin (figure in parentheses)) | SMILES | Inhibition of complement mediated hemolysis (%) ([1]; concentration 1 × 10^-4) | Inhibition of complement mediated hemolysis (%) ([1]; concentration 1 × 10^-5) | Inhibition of complement mediated hemolysis (%) ([1]; concentration 1 × 10^-6) | Inhibition of complement mediated hemolysis (%) ([1]; concentration 1 × 10^-7) |
| --- | --- | --- | --- | --- | --- | --- | --- | --- | --- |
| 40 µM | 600 µM | 200 µM | 50 µM |  | N=C(N)c1ccc2cc(OC(=O)CCCCCN)ccc2c1 [Compound No. 17, 6-amidino-2-naphthyl ε-aminocaproate] |  |  |  |  |
| 10 µM |  | 6 µM | 100 µM | 26% | CCCCCCCCCC(=O)Oc1ccc2cc(C(=N)N)ccc2c1 [Compound No. 5, 6-amidino-2-naphthyl caprate] |  |  |  |  |
|  | > 10 µM |  | > 10 µM |  | N=C(N)c1ccc2cc(OC(=O)CCCC3CCCCC3)ccc2c1 [Compound No. 15, 6-amidino-2-naphthyl 4-cyclohexylbutyrate] |  |  |  |  |

More lines, now with the values behind:

| SMILES | IC50 (plasmin) | IC50 (thrombin) | IC50 (trypsin) | IC50 (kallikrein) | inhibition at 10 µM (thrombin; 1×10^-5 M, hydrolysis of TAME, read-out: percentage inhibition, thrombin (figure in parentheses)) | Inhibition of complement mediated hemolysis (%) ([1]; concentration 1 × 10^-4) | Inhibition of complement mediated hemolysis (%) ([1]; concentration 1 × 10^-5) | Inhibition of complement mediated hemolysis (%) ([1]; concentration 1 × 10^-6) | Inhibition of complement mediated hemolysis (%) ([1]; concentration 1 × 10^-7) |
| --- | --- | --- | --- | --- | --- | --- | --- | --- | --- |
| CCCCCCCCCCCC(=O)Oc1ccc2cc(C(=N)N)ccc2c1 [Compound No. 6, 6-amidino-2-naphthyl laurate] |  |  |  |  |  | 13% | 13% | 27% | 15% |
| C/C=C/C=C/C(=O)Oc1ccc2cc(C(=N)N)ccc2c1 [Compound No. 9, 6-amidino-2-naphthyl sorbate] |  |  |  |  |  | 94% | 89% | 37% | 14% |
| N=C(N)c1ccc2cc(OC(=O)CC3C=CCC3)ccc2c1 (stereo not shown) [Compound No. 13, 6-amidino-2-naphthyl 2-cyclopenteneacetate] |  |  |  |  |  | 39% | 21% | 10% | 10% |
